Experimental data from patent US5658888A, “Erythromycin derivatives” (Chugai Seiyaku Kabushiki Kaisha, priority 1992, dated 1997).
Read-outs that look alike come from different tables or passages of the source.

Legend:
motilin receptor = biological target: T1, motilin receptor (Oryctolagus cuniculus, UniProt G1T803); test: motilin receptor binding test (displacement of 125I-labelled motilin); parameters: species or system rabbit; conditions: for activity in the hydrochloric acid solution compared with that in the DMSO solution: HCl pH 2.5, 120 min vs. DMSO
T1 construct: From a killed rabbit was removed the duodenum; from tissue; host or cells: rabbit duodenum homogenate (mucous membrane detached from the tunica muscularis, homogenized in 50 mM Tris pH 7.4)
Procedure: A motilin receptor binding test was conducted in the manner described hereunder [V. Bormans, et al., Regul. Peptides, 15, 143 (1986)].
(§1) From a killed rabbit was removed the duodenum, of which the mucous membrane was detached from the tunica muscularis and then homogenized in a 50 mM Tris solution (pH 7.4) to prepare a protein solution. Twenty-five pM of ^125 I-labelled motilin (purchased from Ohtsuka Assay Laboratory) and the protein solution were incubated at 25° C. for 120 minutes, after which the radioactivity of the protein was measured with a γ-ray counter, the difference between the radioactivity observed in the case of non-addition of motilin and that observed in the case of addition of an excess (1×10^-7 m) of motilin being defined as the specific binding capacity. The efficacies of the samples were expressed as IC50 (M), the concentration of each of the test drugs which reduces the specific binding capacity to 50%. The test drug was dissolved in a DMSO solution and added to the protein solution (the final DMSO concentration:1%). In experiments on investigation of the acid resistance, the test drug was dissolved in a hydrochloric acid solution (pH 2.5) which was then allowed to stand at room temperature for 120 minutes prior to its addition to the protein solution for the experiments.

[1] = tested on: gastric antrum contractile motility; test: gastrointestinal motility of the conscious dog (force transducers, intragastric administration); assay type: in vivo, Beagle dog; conditions: for ED (MI=150): Canis lupus familiaris, po, conscious dog, interdigestive state, gastric antrum, read-out: MI150 (test drug dosage required to provide MI=150); for gastrointestinal contractile activity (in words): administered into the stomach
Procedure: The gastrointestinal motility of the conscious dog was measured according to the method described previously [Itoh, Zen, Journal of the Smooth Muscle Research, 13, 33 (1976)]. Beagle dogs weighing approximately 10 kg were anesthetized with an intravenously (i.v.) injection of pentobarbital sodium and the abdominal cavity was opened under aseptic conditions. Extraluminal force transducers were sutured onto the serosa of the gastric antrum (stomach), duodenum and jejunum in a manner to measure circular muscle contraction. In addition, a Silastic tube [French, size 6.5, Dow Corning, Midland, Mich., U.S.A.) was placed into the stomach for direct administration of test drugs into the stomach. The lead wires of these force transducers and a Silastic tube were led out of the abdominal cavity and through a skin incision made between the scapulae. After the operation, the dogs were housed in individual experimental cages and given commercial dog food once a day.
The gastrointestinal motor activity was recorded on a thermal pen-writing recorder (WR-3101, Graphtec, Tokyo, Japan) by connecting the lead wires of the transducers to the connecting cables from the amplifiers (UG-5, Nihon Kohden, Tokyo, Japan). About 2 weeks postoperatively, gastrointestinal contractile activity could be divided into two main patterns of activity, interdigestive and digestive state. In the interdigestive state, IMC (interdigestive migrating contractions) were seen to occur at regular intervals of 100-120 minutes in the gastric antrum and migrated through the duodenum and jejunum at a constant velocity. In all animals, feeding disrupted the regular IMC pattern. Experiments were carried out during interdigestive state. The test drug was directly injected into the stomach through a Silastic tube placed in the stomach in a volume of 3 ml, 15 min after the end of the IMC in the gastric antrum. Test drugs were dissolved in ethanol, and then diluted with 0.9% physiological saline.
To measure motility quantitatively, the signals from the gastric antrum were relayed to a personal computer (PC-9801, NEC, Tokyo, Japan) every 100 ms. The area surrounded by the contraction waves and the base line, i.e., the product of the amplitude (voltage) and the time in minutes during a certain fixed period, was calculated, expressed as percent of the area assuming that maximum contraction (amplitude) of the interdigestive migrating contraction lasted for 1 min, and used as the motor index (MI) [Inatomi et al., J. Pharmacol. Exp. Ther. 251, 707 (1989)]. The MI, which is calculated in this manner, of the naturally occurred in the gastric antrum is about 100-200. Therefore, the test drug dosage required to provide MI=150 was defined to be MI150 which was used as the index of the stimulating effects or the gastric motility of test drugs.

[2] = acid resistance / decomposition by acid; assay type: physicochemical; conditions: compared with EM-523 / publicly known erythromycin derivatives
Procedure: as §1

[3] = background statement; cited from earlier work

T1 sequence (G1T803 1-400): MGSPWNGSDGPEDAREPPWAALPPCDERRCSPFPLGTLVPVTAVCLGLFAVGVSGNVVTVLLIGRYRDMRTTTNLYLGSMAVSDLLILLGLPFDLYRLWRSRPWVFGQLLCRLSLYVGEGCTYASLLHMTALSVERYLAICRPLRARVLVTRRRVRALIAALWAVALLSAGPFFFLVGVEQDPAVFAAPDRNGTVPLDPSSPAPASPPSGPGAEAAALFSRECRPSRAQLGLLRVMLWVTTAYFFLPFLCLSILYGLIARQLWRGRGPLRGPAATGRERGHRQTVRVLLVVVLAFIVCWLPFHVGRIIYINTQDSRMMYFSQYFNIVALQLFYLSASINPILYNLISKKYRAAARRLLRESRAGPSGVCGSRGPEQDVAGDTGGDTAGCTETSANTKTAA

Row | Structure (SMILES) | level of activity in DMSO solution (comparison of Compound 6 and EM-523) (motilin receptor) | activity in the hydrochloric acid solution compared with that in the DMSO solution (motilin receptor) | IC50 (motilin receptor; test drug in DMSO solution (final DMSO 1%), rabbit duodenum, 25 pM 125I-motilin, 25° C., 120 min, pH 7.4, read-out: IC50, Solution in DMSO) [nM] | IC50 (motilin receptor; test drug stood in hydrochloric acid solution (pH 2.5) at room temperature for 120 minutes before the assay, read-out: IC50, Solution in HCl) [nM] | ED (MI=150) ([1]; intragastric) [µg/kg] | gastrointestinal contractile activity (in words) [1] | contractile activity in the gastric antrum relative to EM-523 ([1]; intragastric, ratio of potency to EM-523) | decomposition by acid (in words) [2] | stability in the presence of an acid (in words) [3]
1 | CC[C@H]1OC(=O)[C@H](C)[C@@H](O[C@H]2C[C@@](C)(OC)[C@@H](O)[C@H](C)O2)[C@H](C)[C@@H](O[C@@H]2O[C@H](C)C[C@H](N(C)C(C)C)[C@H]2O)[C@@]2(C)CC(C)=C(O2)[C@H](C)C(=O)[C@]1(C)OC [Compound 6, isopropyl-nor-12-O-methyl-11-oxo-8,9-anhydroerythromycin A 6,9-hemiketal] | the same level of activity | differing little from the value in the DMSO solution | 4.1 | 9.1 | 3.8 | increased gastrointestinal contractile activity | about 4 times | less decomposable with an acid than is EM-523 | –
2 | CC[C@H]1OC(=O)[C@H](C)[C@@H](O[C@H]2C[C@@](C)(OC)[C@@H](O)[C@H](C)O2)[C@H](C)[C@@H](O[C@@H]2O[C@H](C)C[C@H](N(C)CC)[C@H]2O)[C@@]2(C)CC(C)=C(O2)[C@H](C)[C@@H](O)[C@]1(C)O [EM-523, reference compound] | the same level of activity | a decrease in the activity to one-100th that in the DMSO solution | – | – | 14.6 | increased gastrointestinal contractile activity | – | – | unstable in the presence of an acid
